Assay results published in patent US9181234B2, “Antibacterial compounds” (priority 2010, dated 2015).
In brackets after ≈: the same amount, converted by molar mass.

Experiments:
[1] = system: Streptococcus pyogenes (Isolate ID ATCC 51339); assay: Antibacterial activity, MIC, S. pyogenes; type: cell-based; settings: Streptococcus pyogenes, ATCC51339, Gram positive strain; broth microdilution or agar dilution
How it was run: (§1)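 Readout is the MIC, established according to CLSI standard M7-A7 using either agar dilution or broth microdilution.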

physchem = settings: kinetic from dmso stock
How it was run: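 DMSO doubling dilutions were diluted twenty-fold into 100 mM citrate (pH 4), PBS (pH 7.4) or carbonate-bicarbonate (pH 9). After 24 h equilibration at room temperature, absorbance was read at 620 nm. The reported value is the highest concentration without measurable precipitate.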

[2] = system: Staphylococcus aureus (Isolate ID ATCC 29213); assay: Antibacterial activity, MIC, S. aureus; type: cell-based; settings: Staphylococcus aureus, ATCC29213, Gram positive strain; broth microdilution or agar dilution
How it was run: as §1

[3] = system: Enterococcus faecalis (Isolate ID ATCC 29212); assay: Antibacterial activity, MIC, E. faecalis; type: cell-based; settings: Enterococcus faecalis, ATCC29212; Gram positive strain; broth microdilution or agar dilution
Method: Bacterial Assay: Determination of Antibacterial Activity
Compounds of the invention were tested for antimicrobial activity by susceptibility testing in liquid or on solid media. MICs for compounds against each strain were determined by the broth microdilution or agar dilution method according to the guidelines of the Clinical Laboratories and Standards Institute, formerly the National Committee for Clinical Laboratory Standards (Clinical Laboratories and Standards Institute. Methods for Dilution Antimicrobial Susceptibility Tests for Bacteria That Grow Aerobically; Approved Standard—Seventh Edition. Document M7-A7. CLSI, Wayne, Pa., 2006; Clinical Laboratories and Standards Institute. The gram positive bacterial strains tested include S. aureus (Staphylococcus aureus (Isolate ID ATCC 29213)), E. faecalis (Enterococcus faecalis (Isolate ID ATCC 29212)) and S. pyogenes (Streptococcus pyogenes (Isolate ID ATCC 51339)). The gram negative bacterial strains tested include H. influenzae (Haemophilus influenzae (Isolate ID ATCC 49247))

[4] = system: Haemophilus influenzae (Isolate ID ATCC 49247); assay: Antibacterial activity, MIC, H. influenzae; type: cell-based; settings: Haemophilus influenzae, ATCC49247; Gram negative strain; broth microdilution or agar dilution
How it was run: as §1

[5] = pH 7.4, aqueous buffer, Solubility (pH 7.4)
[6] = pH 7.4, aqueous buffer, Solubility Range
[7] = pH 7.4, aqueous buffer, Max Solubility
[8] = pH 7.4, aqueous buffer, Solubility Range (maximum solubility)

| SMILES | MIC [1] | solubility at 24 h (physchem; [5]) | solubility at 24 h (physchem; [6]) | MIC [2] | MIC [3] | MIC [4] | solubility at 24 h (physchem; [7]) | solubility at 24 h (physchem; [8]) | solubility at 24 h (physchem; pH 9, aqueous buffer, Max Solubility) | solubility at 24 h (physchem; pH 9, aqueous buffer, Solubility Range (maximum solubility)) |
| --- | --- | --- | --- | --- | --- | --- | --- | --- | --- | --- |
| CCNC(=O)Nc1nc2cc(-c3cnc(N4CCC(C)(C(=O)O)CC4)nc3)cc(-c3cnn(C)c3)c2s1 [Compound 24] | 0.25 to 1 µg/mL (≈ 0.48 to 1.92 µM) | ≥ 800 µg/mL | > 800 µg/mL | 1 to 16 µg/mL (≈ 1.92 to 30.7 µM) | ≤ 0.25 µg/mL | 1 to 16 µg/mL (≈ 1.92 to 30.7 µM) |  |  |  |  |
| CCNC(=O)Nc1nc2cc(-c3cnc(N4CCC(C)(C(=O)O)CC4)nc3)cc(-c3cn[nH]c3)c2s1 [Compound 25] | 0.25 to 1 µg/mL (≈ 0.493 to 1.97 µM) | ≥ 800 µg/mL | > 800 µg/mL | > 16 µg/mL | 0.25 to 1 µg/mL (≈ 0.493 to 1.97 µM) | > 16 µg/mL |  |  |  |  |
| CCNC(=O)Nc1nc2cc(-c3cnc(N4CCC(C)(C(=O)O)CC4)nc3)cc(O)c2s1 [Compound 26, 1-[5-[2-(ethylcarbamoylamino)-7-hydroxy-1,3-benzothiazol-5-yl]pyrimidin-2-yl]-4-methyl-piperidine-4-carboxylic acid] | 1 to 16 µg/mL (≈ 2.19 to 35 µM) | ≥ 800 µg/mL | > 800 µg/mL | > 16 µg/mL | 1 to 16 µg/mL (≈ 2.19 to 35 µM) | > 16 µg/mL |  |  |  |  |
| CCNC(=O)Nc1nc2cc(-c3cnc(N4CCC(C)(C(=O)O)CC4)nc3)cc(-c3nc(CO)cs3)c2s1 [Compound 27] | ≤ 0.25 µg/mL | ≥ 800 µg/mL | > 800 µg/mL | 1 to 16 µg/mL (≈ 1.81 to 28.9 µM) | ≤ 0.25 µg/mL | 1 to 16 µg/mL (≈ 1.81 to 28.9 µM) |  |  |  |  |
| C#Cc1cc(-c2cnc(N3CCC(C)(C(=O)O)CC3)nc2)cc2nc(NC(=O)NCC)sc12 [Compound 28] | 0.25 to 1 µg/mL (≈ 0.538 to 2.15 µM) | ≥ 800 µg/mL | > 800 µg/mL | 0.25 to 1 µg/mL (≈ 0.538 to 2.15 µM) | ≤ 0.25 µg/mL | 1 to 16 µg/mL (≈ 2.15 to 34.4 µM) |  |  |  |  |
| CCNC(=O)Nc1nc2cc(-c3cnc(N4CCC(C)(C(=O)O)CC4)nc3)cc(-n3cccn3)c2s1 [Compound 29] | 0.25 to 1 µg/mL (≈ 0.493 to 1.97 µM) | ≥ 800 µg/mL | > 800 µg/mL | 0.25 to 1 µg/mL (≈ 0.493 to 1.97 µM) | ≤ 0.25 µg/mL | 1 to 16 µg/mL (≈ 1.97 to 31.6 µM) |  |  |  |  |
| CCNC(=O)Nc1nc2cc(-c3cnc(N4CCC(C)(C(=O)O)CC4)nc3)cc(-c3cccn3C)c2s1 [Compound 30] | 0.25 to 1 µg/mL (≈ 0.481 to 1.92 µM) | ≥ 800 µg/mL | > 800 µg/mL | 0.25 to 1 µg/mL (≈ 0.481 to 1.92 µM) | ≤ 0.25 µg/mL | 1 to 16 µg/mL (≈ 1.92 to 30.8 µM) |  |  |  |  |
| CCNC(=O)Nc1nc2cc(-c3cnc(N4CCC(C)(C(=O)O)CC4)nc3)cc(-c3ccc(C)cn3)c2s1 [Compound 31] | ≤ 0.25 µg/mL | ≥ 800 µg/mL | > 800 µg/mL | ≤ 0.25 µg/mL | ≤ 0.25 µg/mL | 0.25 to 1 µg/mL (≈ 0.47 to 1.88 µM) | ≥ 800 µg/mL | > 800 µg/mL |  |  |
| CCNC(=O)Nc1nc2cc(-c3cnc(N4CCC(C)(C(=O)O)CC4)nc3)cc(-c3cccc(C#N)n3)c2s1 [Compound 32] | ≤ 0.25 µg/mL | 400 µg/mL (≈ 737 µM) | 400 to 800 µg/mL (≈ 737 to 1470 µM) | ≤ 0.25 µg/mL | ≤ 0.25 µg/mL | 1 to 16 µg/mL (≈ 1.84 to 29.5 µM) | 400 µg/mL (≈ 737 µM) | 400 to 800 µg/mL (≈ 737 to 1470 µM) |  |  |
| CCNC(=O)Nc1nc2cc(-c3cnc(N4CCC(C)(C(=O)O)CC4)nc3)cc(-n3ccnc3)c2s1 [Compound 33] | 1 to 16 µg/mL (≈ 1.97 to 31.6 µM) | 200 µg/mL (≈ 395 µM) | 12.5 to 400 µg/mL (≈ 24.7 to 790 µM) | > 16 µg/mL | 1 to 16 µg/mL (≈ 1.97 to 31.6 µM) | > 16 µg/mL |  |  | ≥ 800 µg/mL | > 800 µg/mL |
